Results: patent publication US7704723B2, “Isolation and characterization of novel clostridial species” (The Board of Regents For Oklahoma State University, priority 2006, dated 2010)
Marks after values point to notes of the source that are not given here.

tested on: Clostridium ragsdalei strain P11; assay: Growth of strain P11 on organic and gaseous substrates as sole carbon and energy sources; format: cell-based; conditions: Clostridium ragsdalei; malate and formate examined at pH 5.0-6.5
Procedure: (§1) Except for the deletion of NaHCO3 and an initial pH 6.3, growth on organic and gaseous substrates was performed as previously described (Tanner et. al., 1993). Resazurin (1 mg/L) was used as the redox indicator. Purified agar was added to the medium at a concentration of 2% for colony morphology description (Table 5). Heat labile substrates were filter sterilized (not autoclaved) and added from sterile stock solutions to a final concentration of 5 g/L before inoculation. The optimum temperature and pH (initial pH) was determined in medium containing fructose as the substrate. For determination of the optimum pH, media was buffered with HOMOPIPES (homopiperazine-N,N′-bis-2-[ethanesulfonic acid] (Research Organics, Cleveland, Ohio), MES (2-[N-morpholino]ethanesulfonic acid), or TES (N-tris [hydroxymethyl]methyl-2-aminoethanesulfonic acid) at (1.0 g/L). A 0.1 ml (˜2%) inoculum of fructose-grown cells was used to initiate growth. All media components used in these experiments were obtained from Sigma unless otherwise noted (Sigma Chemical Co., St. Louis, Mo.).
(§2) Analytical methods. […] For the substrate malate, utilization was analyzed by HPLC (“high-performance liquid chromatography”) equipped with a UV detector set at 214 nm using a Alltech, Prevail Organic Acid column (4.6×150 mm, 5 μm; Alltech, Deerfield, Mich.) with a mobile phase of 25 mM KH2PO4, pH 2.5 and 10% (v/v) methanol.

Row | Compound | Growth with substrate
1 | CCCO [1-Propanol] | chemoorganotrophic growth was observed
2 | C[C@H](N)C(=O)O [Alanine] | chemoorganotrophic growth was observed
3 | O=C[C@@H](O)[C@H](O)CO [D (−) Threose] | chemoorganotrophic growth was observed
4 | O=C(CO)[C@@H](O)[C@H](O)[C@H](O)CO [Fructose] | chemoorganotrophic growth was observed
5 | N[C@@H](CCC(=O)O)C(=O)O [Glutamate] | chemoorganotrophic growth was observed
6 | O=C(O)CC(O)C(=O)O (centres unmarked) [Malic acid] | did not initially support growth
7 | O=C[O-].[Na+] [Na-Formate] | did not initially support growth
8 | CC(=O)C(=O)O [Na-Pyruvate] | chemoorganotrophic growth was observed
9 | N[C@@H](CO)C(=O)O [Serine] | chemoorganotrophic growth was observed
10 | OC[C@H]1O[C@@](CO)(O[C@H]2O[C@H](CO)[C@@H](O)[C@H](O)[C@H]2O)[C@@H](O)[C@@H]1O [Sucrose] | chemoorganotrophic growth was observed
11 | O=C[C@H](O)[C@@H](O)[C@H](O)CO [Xylose] | chemoorganotrophic growth was observed

same assay, conditions: strain P11; growth on substrate as sole carbon and energy source; final OD600

Row | Compound | Substrate utilization, C. ragsdalei
12 | CCCO [1-Propanol] | + (positive (indicates a final OD600 of greater than or equal to 0.1.))
13 | N#C[C@H](O[C@@H]1O[C@H](CO[C@@H]2O[C@H](CO)[C@@H](O)[C@H](O)[C@H]2O)[C@@H](O)[C@H](O)[C@H]1O)c1ccccc1 [Amygdalin] | −
14 | O=C[C@@H](O)[C@H](O)[C@H](O)CO [Arabinose] | −
15 | N=C(N)NCCC[C@H](N)C(=O)O [Arginine] | −
16 | C[N+](C)(C)CC(=O)O [Betaine] | −
17 | OC[C@H]1O[C@@H](O[C@H]2[C@H](O)[C@@H](O)[C@H](O)O[C@@H]2CO)[C@H](O)[C@@H](O)[C@@H]1O [Cellibiose] | −
18 | O=C[C@H](O)[C@H](O)CO [Erythrose] | −
19 | C[C@H](O)[C@@H](O)[C@@H](O)[C@H](O)C=O [Fucose] | −
20 | O=C[C@H](O)[C@@H](O)[C@@H](O)[C@H](O)CO [Galactose] | −
21 | O=C(O)[C@H](O)[C@@H](O)[C@H](O)[C@H](O)CO [Gluconic acid] | −
22 | N[C@@H](CCC(=O)O)C(=O)O [Glutamate] | + (positive (indicates a final OD600 of greater than or equal to 0.1.))
23 | NC(=O)CC[C@H](N)C(=O)O [Glutamine] | −
24 | OCC(O)CO [Glycerol] | −
25 | O=C(O)CO [Glycolic acid] | −
26 | N[C@@H](Cc1c[nH]cn1)C(=O)O [Histidine] | −
27 | O[C@H]1[C@H](O)[C@@H](O)[C@H](O)[C@@H](O)[C@H]1O [Inositol] | −
28 | CC(C)O [Iso-propanol] | −
29 | O=C[C@H](O)[C@@H](O)CO [L (+) Threose] | −
30 | OC[C@H]1O[C@@H](O[C@H]2[C@H](O)[C@@H](O)C(O)O[C@@H]2CO)[C@H](O)[C@@H](O)[C@H]1O (some centres unmarked) [Lactose] | −
31 | O=C(O)/C=C\C(=O)O [Maleic acid] | −
32 | O=C(O)CC(O)C(=O)O (centres unmarked) [Malic acid] | −

Row | Compound | Substrate utilization, C. ragsdalei
33 | OC[C@H]1O[C@H](O[C@H]2[C@H](O)[C@@H](O)[C@H](O)O[C@@H]2CO)[C@H](O)[C@@H](O)[C@@H]1O [Maltose] | −
34 | OC[C@@H](O)[C@@H](O)[C@H](O)[C@H](O)CO [Mannitol] | −
35 | OC[C@H]1O[C@H](OCC2O[C@@H](O)[C@H](O)[C@@H](O)[C@@H]2O)[C@H](O)[C@@H](O)[C@H]1O (some centres unmarked) [Melibiose] | −
36 | OC[C@H]1O[C@@](CO)(O[C@H]2O[C@H](CO)[C@@H](O)[C@H](O)[C@H]2O)[C@@H](O[C@H]2O[C@H](CO)[C@@H](O)[C@H](O)[C@H]2O)[C@@H]1O [Melizitose] | −
37 | CO [Methanol] | −
38 | CC(=O)[O-].[Na+] [Na-Acetate] | −
39 | O=C([O-])CC(O)(CC(=O)[O-])C(=O)[O-].[Na+].[Na+].[Na+] [Na-Citrate] | −
40 | O=C[O-].[Na+] [Na-Formate] | −
41 | O=C([O-])/C=C/C(=O)[O-].[Na+].[Na+] [Na-Fumarate] | −
42 | CC(O)C(=O)[O-].[Na+] (centres unmarked) [Na-Lactate] | −
43 | CCC(=O)[O-].[Na+] [Na-Propionate] | −
44 | O=C([O-])CCC(=O)[O-].[Na+].[Na+] [Na-Succinate] | −
45 | C[C@H](O)[C@H](O)[C@@H](O)[C@@H](O)C=O [Rhamnose] | −
46 | OCc1ccccc1O[C@@H]1O[C@H](CO)[C@@H](O)[C@H](O)[C@H]1O [Salicin] | −
47 | OC[C@@H](O)[C@@H](O)[C@H](O)[C@@H](O)CO [Sorbitol] | −
48 | OC[C@H]1O[C@H](O[C@H]2O[C@H](CO)[C@@H](O)[C@H](O)[C@H]2O)[C@H](O)[C@@H](O)[C@@H]1O [Trehalose] | −
49 | O=C(CO)[C@@H](O[C@H]1O[C@H](CO)[C@@H](O)[C@H](O)[C@H]1O)[C@H](O)[C@H](O)CO [Turanose] | −
50 | O=C(O)CCC(=O)C(=O)O [alpha-ketoglutarate] | −
51 | Cellulose | −
52 | Glycogen | −

same assay, conditions: strain P11 grown with the substrate under optimal conditions

Row | Compound | Doubling time [h⁻¹]
53 | O=C[C@H](O)[C@@H](O)[C@H](O)CO [Xylose] | 0.220

tested on: Clostridium ljungdahlii strain PETC; assay: Growth of reference strain PETC on substrates as sole carbon and energy sources; format: cell-based; conditions: after incubation of about thirty days, pH 5.0-6.5
Text: Organisms. Clostridium ljundahlii strain PETC was obtained from a fructose stock culture maintained by Dr. Ralph S. Tanner and was used as the reference control strain. Strain P11 was obtained from an anaerobic enrichment inoculated with fresh water sediment from the Duck Pond at the University of Oklahoma by a procedure described previously (Bryant, 1972) under an atmosphere of CO:N2:CO2 (75:15:10) and an initial pH of 6.0. The carbon monoxide oxidizing clostridium described within was named Clostridium ragsdalei. This bacterium was designated strain P11 and deposited with the American Type Culture Collection as strain ATCC BAA-622.
as §1, §2

Row | Compound | Growth with malate as the sole carbon source after adaptation
54 | O=C(O)CC(O)C(=O)O (centres unmarked) [Malic acid] | able to grow

same assay, conditions: strain PETC; growth on substrate as sole carbon and energy source; final OD600

Row | Compound | Substrate utilization, C. ljungdahlii
55 | CCCO [1-Propanol] | +^† (positive (indicates a final OD600 of greater than or equal to 0.1.))
56 | N#C[C@H](O[C@@H]1O[C@H](CO[C@@H]2O[C@H](CO)[C@@H](O)[C@H](O)[C@H]2O)[C@@H](O)[C@H](O)[C@H]1O)c1ccccc1 [Amygdalin] | −
57 | C[N+](C)(C)CC(=O)O [Betaine] | −
58 | OC[C@H]1O[C@@H](O[C@H]2[C@H](O)[C@@H](O)[C@H](O)O[C@@H]2CO)[C@H](O)[C@@H](O)[C@@H]1O [Cellibiose] | −
59 | O=C[C@H](O)[C@H](O)CO [Erythrose] | −
60 | C[C@H](O)[C@@H](O)[C@@H](O)[C@H](O)C=O [Fucose] | −
61 | O=C[C@H](O)[C@@H](O)[C@@H](O)[C@H](O)CO [Galactose] | −
62 | N[C@@H](CCC(=O)O)C(=O)O [Glutamate] | +^† (positive (indicates a final OD600 of greater than or equal to 0.1.))
63 | NC(=O)CC[C@H](N)C(=O)O [Glutamine] | −
64 | OCC(O)CO [Glycerol] | −
65 | O=C(O)CO [Glycolic acid] | −
66 | O[C@H]1[C@H](O)[C@@H](O)[C@H](O)[C@@H](O)[C@H]1O [Inositol] | −
67 | CC(C)O [Iso-propanol] | −
68 | O=C[C@H](O)[C@@H](O)CO [L (+) Threose] | −
69 | OC[C@H]1O[C@@H](O[C@H]2[C@H](O)[C@@H](O)C(O)O[C@@H]2CO)[C@H](O)[C@@H](O)[C@H]1O (some centres unmarked) [Lactose] | −
70 | O=C(O)/C=C\C(=O)O [Maleic acid] | −
71 | O=C(O)CC(O)C(=O)O (centres unmarked) [Malic acid] | −
72 | OC[C@H]1O[C@H](O[C@H]2[C@H](O)[C@@H](O)[C@H](O)O[C@@H]2CO)[C@H](O)[C@@H](O)[C@@H]1O [Maltose] | −

Row | Compound | Substrate utilization, C. ljungdahlii
73 | OC[C@@H](O)[C@@H](O)[C@H](O)[C@H](O)CO [Mannitol] | −
74 | OC[C@H]1O[C@H](OCC2O[C@@H](O)[C@H](O)[C@@H](O)[C@@H]2O)[C@H](O)[C@@H](O)[C@H]1O (some centres unmarked) [Melibiose] | −
75 | OC[C@H]1O[C@@](CO)(O[C@H]2O[C@H](CO)[C@@H](O)[C@H](O)[C@H]2O)[C@@H](O[C@H]2O[C@H](CO)[C@@H](O)[C@H](O)[C@H]2O)[C@@H]1O [Melizitose] | −
76 | CO [Methanol] | −
77 | CC(=O)[O-].[Na+] [Na-Acetate] | −
78 | O=C([O-])CC(O)(CC(=O)[O-])C(=O)[O-].[Na+].[Na+].[Na+] [Na-Citrate] | +* (positive (indicates a final OD600 of greater than or equal to 0.1.))
79 | O=C[O-].[Na+] [Na-Formate] | −
80 | CC(O)C(=O)[O-].[Na+] (centres unmarked) [Na-Lactate] | −
81 | CCC(=O)[O-].[Na+] [Na-Propionate] | −
82 | O=C([O-])CCC(=O)[O-].[Na+].[Na+] [Na-Succinate] | −
83 | OCc1ccccc1O[C@@H]1O[C@H](CO)[C@@H](O)[C@H](O)[C@H]1O [Salicin] | −
84 | OC[C@@H](O)[C@@H](O)[C@H](O)[C@@H](O)CO [Sorbitol] | −
85 | OC[C@H]1O[C@H](O[C@H]2O[C@H](CO)[C@@H](O)[C@H](O)[C@H]2O)[C@H](O)[C@@H](O)[C@@H]1O [Trehalose] | −
86 | O=C(CO)[C@@H](O[C@H]1O[C@H](CO)[C@@H](O)[C@H](O)[C@H]1O)[C@H](O)[C@H](O)CO [Turanose] | −
87 | O=C(O)CCC(=O)C(=O)O [alpha-ketoglutarate] | + (positive (indicates a final OD600 of greater than or equal to 0.1.))
88 | Cellulose | −
89 | Glycogen | −
